Measurements published in patent US11352340B2, “Pyridine and pyridimine compounds as PI3K-gamma inhibitors” (Incyte Corporation, priority 2016, dated 2022).
Counter-ions that a name gives are not always drawn.

Experiments:
[1] = biological target: PI3Kγ (p110γ) Recombinant Human Protein (Homo sapiens (Human), UniProt P48736); assay: PI3K-γ Scintillation Proximity Assay; assay type: biochemical; details: read-out: PI3K-gamma SPA IC50
Description: Example B. PI3K-γ Scintillation Proximity Assay
(§1) [γ-^33P]ATP (10 mCi/mL) and Wheat Germ Agglutinin (WGA) YSi SPA Scintillation Beads was purchased from Perkin-Elmer (Waltham, Mass.). Lipid kinase substrate, D-myo-Phosphatidylinositol 4,5-bisphosphate (PtdIns(4,5)P2)D (+)-sn-1,2-di-O-octanoylglyceryl, 3-O-phospho linked (PIP2), CAS 204858-53-7, was purchased from Echelon Biosciences (Salt Lake City, Utah). PI3Kγ (p110γ) Recombinant Human Protein was purchased from Life technology (Grand Island, N.Y.). ATP, MgCl2, DTT, EDTA, MOPS and CHAPS were purchased from Sigma-Aldrich (St. Louis, Mo.).
(§2) The kinase reaction was conducted in polystyrene 384-well Greiner Bio-one white plate from Thermo Fisher Scientific in a final volume of 25 μL. Inhibitors were first diluted serially in DMSO and added to the plate wells before the addition of other reaction components. The final concentration of DMSO in the assay was 2%. The PI3Kγ assay was carried out at room temperature in 20 mM MOPS, pH 6.7, 10 mM MgCl2, 5 mM DTT and CHAPS 0.03%. Reactions were initiated by the addition of ATP, the final reaction mixture consisted of 20 μM PIP2, 2 μM ATP, 0.5 μCi [γ-^33P] ATP, 13 nM PI3Kγ. Reactions were incubated for 120 min and terminated by the addition of 40 μL SPA beads suspended in quench buffer: 163 mM potassium phosphate pH 7.8, 20% glycerol, 25 mM EDTA. The final concentration of SPA beads is 1.0 mg/mL. After the plate sealing, plates were shaken overnight at room temperature and centrifuged at 1500 rpm for 10 min, the radioactivity of the product was determined by scintillation counting on Topcount (Perkin-Elmer). IC50 determination was performed by fitting the curve of percent of the solvent control activity versus the log of the inhibitor concentration using the GraphPad Prism 6.0 software.

[2] = biological target: PI3Kδ (p110δ/p85α) Recombinant Human Protein (Homo sapiens (Human), UniProt O00329); assay: PI3Kδ Scintillation Proximity Assay; assay type: biochemical; details: read-out: PI3K-delta SPA IC50
Sequence of PI3Kδ (p110δ/p85α) Recombinant Human Protein (O00329 whole entry): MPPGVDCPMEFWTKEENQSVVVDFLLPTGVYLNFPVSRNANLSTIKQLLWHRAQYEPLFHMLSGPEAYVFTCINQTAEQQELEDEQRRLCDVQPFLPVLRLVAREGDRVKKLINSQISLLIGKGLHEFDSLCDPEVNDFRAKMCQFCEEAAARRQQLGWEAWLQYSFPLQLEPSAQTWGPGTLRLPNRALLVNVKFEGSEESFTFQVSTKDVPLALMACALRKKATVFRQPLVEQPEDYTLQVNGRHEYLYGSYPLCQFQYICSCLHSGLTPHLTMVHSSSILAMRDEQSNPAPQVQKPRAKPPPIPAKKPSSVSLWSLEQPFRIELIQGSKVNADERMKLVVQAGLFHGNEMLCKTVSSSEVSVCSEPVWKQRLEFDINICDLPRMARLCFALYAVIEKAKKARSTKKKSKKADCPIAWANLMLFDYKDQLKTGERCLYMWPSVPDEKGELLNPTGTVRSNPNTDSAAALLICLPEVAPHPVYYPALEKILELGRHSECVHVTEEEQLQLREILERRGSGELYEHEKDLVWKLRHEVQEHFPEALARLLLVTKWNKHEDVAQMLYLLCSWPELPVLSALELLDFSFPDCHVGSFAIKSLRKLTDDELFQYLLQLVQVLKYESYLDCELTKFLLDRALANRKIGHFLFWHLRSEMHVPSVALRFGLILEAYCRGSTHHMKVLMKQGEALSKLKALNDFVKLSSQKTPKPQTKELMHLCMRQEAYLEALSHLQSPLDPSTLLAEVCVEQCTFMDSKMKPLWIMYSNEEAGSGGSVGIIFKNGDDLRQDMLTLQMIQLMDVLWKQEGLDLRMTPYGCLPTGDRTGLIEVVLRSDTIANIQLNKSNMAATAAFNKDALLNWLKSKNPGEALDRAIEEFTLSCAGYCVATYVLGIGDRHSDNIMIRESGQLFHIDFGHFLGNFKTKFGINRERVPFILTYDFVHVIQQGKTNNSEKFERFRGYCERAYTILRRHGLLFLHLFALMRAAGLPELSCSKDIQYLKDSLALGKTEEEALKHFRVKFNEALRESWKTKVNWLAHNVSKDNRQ
Sequence of PI3Kδ (p110δ/p85α) Recombinant Human Protein (P27986 whole entry partner): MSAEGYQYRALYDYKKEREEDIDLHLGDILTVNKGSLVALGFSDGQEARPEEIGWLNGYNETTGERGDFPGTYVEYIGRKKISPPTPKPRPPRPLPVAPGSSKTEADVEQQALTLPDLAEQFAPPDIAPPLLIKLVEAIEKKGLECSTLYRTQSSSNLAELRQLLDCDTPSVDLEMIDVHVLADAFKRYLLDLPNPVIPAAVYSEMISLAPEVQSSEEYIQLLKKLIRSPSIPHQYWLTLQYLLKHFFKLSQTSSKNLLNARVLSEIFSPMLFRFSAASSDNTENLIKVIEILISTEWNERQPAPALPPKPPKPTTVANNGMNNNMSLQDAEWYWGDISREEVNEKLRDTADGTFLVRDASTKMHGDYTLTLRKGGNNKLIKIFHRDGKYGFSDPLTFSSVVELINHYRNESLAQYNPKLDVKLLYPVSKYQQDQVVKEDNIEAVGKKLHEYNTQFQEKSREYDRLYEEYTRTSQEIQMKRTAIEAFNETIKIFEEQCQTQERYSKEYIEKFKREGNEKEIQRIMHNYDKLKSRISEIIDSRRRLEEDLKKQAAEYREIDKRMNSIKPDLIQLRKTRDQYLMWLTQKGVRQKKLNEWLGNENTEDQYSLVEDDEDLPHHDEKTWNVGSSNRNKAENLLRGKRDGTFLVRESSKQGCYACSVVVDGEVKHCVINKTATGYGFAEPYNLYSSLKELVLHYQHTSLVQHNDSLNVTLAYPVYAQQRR
Description: Example C. PI3Kδ Scintillation Proximity Assay
as §1, with “PI3Kδ (p110δ/p85α)” for “PI3Kγ (p110γ)”, “Eurofins (St Charles, Mo.).” for “Life technology (Grand Island, N.Y.).”
as §2, with “PI3Kδ” for “PI3Kγ”, “3.4” for “13”, “PI3Kδ.” for “PI3Kγ.”

Sequence of PI3Kγ (p110γ) Recombinant Human Protein (P48736 whole entry): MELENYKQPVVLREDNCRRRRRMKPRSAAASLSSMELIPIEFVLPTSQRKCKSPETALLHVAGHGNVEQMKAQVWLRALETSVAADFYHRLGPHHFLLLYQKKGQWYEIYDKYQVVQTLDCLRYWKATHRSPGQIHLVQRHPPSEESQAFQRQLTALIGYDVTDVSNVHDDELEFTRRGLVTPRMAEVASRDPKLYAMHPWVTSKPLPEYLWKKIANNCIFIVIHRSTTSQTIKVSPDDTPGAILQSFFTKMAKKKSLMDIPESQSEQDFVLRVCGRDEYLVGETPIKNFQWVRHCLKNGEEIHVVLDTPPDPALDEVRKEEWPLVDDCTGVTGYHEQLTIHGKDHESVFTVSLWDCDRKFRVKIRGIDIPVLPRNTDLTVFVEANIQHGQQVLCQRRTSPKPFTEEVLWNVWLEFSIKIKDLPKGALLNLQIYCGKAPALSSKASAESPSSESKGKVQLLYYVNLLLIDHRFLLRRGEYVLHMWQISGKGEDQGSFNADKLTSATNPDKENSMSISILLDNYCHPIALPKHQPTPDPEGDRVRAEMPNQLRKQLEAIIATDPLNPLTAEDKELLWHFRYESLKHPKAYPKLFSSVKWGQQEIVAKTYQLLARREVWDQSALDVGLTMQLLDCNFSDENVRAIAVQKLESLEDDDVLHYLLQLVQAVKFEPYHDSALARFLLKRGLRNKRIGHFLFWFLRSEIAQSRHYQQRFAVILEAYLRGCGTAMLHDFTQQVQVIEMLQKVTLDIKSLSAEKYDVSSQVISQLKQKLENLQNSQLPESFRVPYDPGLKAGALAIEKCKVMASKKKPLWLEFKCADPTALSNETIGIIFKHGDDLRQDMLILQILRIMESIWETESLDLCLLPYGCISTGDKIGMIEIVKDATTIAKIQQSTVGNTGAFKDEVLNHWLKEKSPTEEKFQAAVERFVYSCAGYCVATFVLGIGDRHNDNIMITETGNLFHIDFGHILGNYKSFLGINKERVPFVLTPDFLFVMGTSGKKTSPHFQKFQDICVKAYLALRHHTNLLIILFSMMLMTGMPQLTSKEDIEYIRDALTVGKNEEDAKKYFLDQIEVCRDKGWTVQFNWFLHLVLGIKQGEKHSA

4-(1-Methyl-3-(trifluoromethyl)-1H-pyrazol-5-yl)-2-(5-phenyl-1H-imidazol-2-yl)pyridine trifluoroacetate salt [Example 13]
IC50 [1]: > 500 nM
IC50 [2]: > 500 nM

c1ccc(-c2cnc(-c3cc(-c4cnn(C5CCOC5)c4)ccn3)[nH]2)cc1 (racemic) [Example 60, 2-(5-Phenyl-1H-imidazol-2-yl)-4-(1-(tetrahydrofuran-3-yl)-1H-pyrazol-4-yl)pyridine trifluoroacetate salt]
IC50 [1]: ≤ 500 nM
IC50 [2]: ≤ 500 nM

Cc1[nH]c(-c2cc(-c3cncc(N4CCOCC4)c3)ccn2)nc1C(C)O (racemic) [Example 124, 1-[5-Methyl-2-(5-morpholin-4-yl-3,4′-bipyridin-2′-yl)-1H-imidazol-4-yl]ethanol]
IC50 [1]: ≤ 500 nM
IC50 [2]: ≤ 500 nM

Cc1nc(-c2cc(-c3cncc(C(=O)NCC4CCCO4)c3)ccn2)[nH]c1C (racemic) [Example 167, 2′-(4,5-Dimethyl-1H-imidazol-2-yl)-N-((tetrahydrofuran-2-yl)methyl)-3,4′-bipyridine-5-carboxamide trifluoroacetate salt]
IC50 [1]: ≤ 100 nM
IC50 [2]: ≤ 500 nM

Cc1nc(-c2cc(-c3cncc(C(=O)N4CCC(c5ccccn5)C4)c3)ccn2)[nH]c1C (racemic) [Example 170, (2′-(4,5-Dimethyl-1H-imidazol-2-yl)-3,4′-bipyridin-5-yl)(3-(pyridin-2-yl)pyrrolidin-1-yl)methanone trifluoroacetate salt]
IC50 [1]: ≤ 100 nM
IC50 [2]: ≤ 50 nM

Cc1nc(-c2cc(-c3cncc(C(=O)N4CCC(c5ccccc5)C4)c3)ccn2)[nH]c1C (racemic) [Example 181, 2′-(4,5-Dimethyl-1H-imidazol-2-yl)-5-[(3-phenylpyrrolidin-1-yl)carbonyl]-3,4′-bipyridine trifluoroacetate salt]
IC50 [1]: ≤ 100 nM
IC50 [2]: ≤ 50 nM

Cc1nc(-c2cc(-c3cncc(C(=O)N4CCC(c5ccncc5)C4)c3)ccn2)[nH]c1C (racemic) [Example 182, 2′-(4,5-Dimethyl-1H-imidazol-2-yl)-5-[(3-pyridin-4-ylpyrrolidin-1-yl)carbonyl]-3,4′-bipyridine]
IC50 [1]: ≤ 500 nM
IC50 [2]: ≤ 500 nM

Cc1nc(-c2cc(-c3cncc(C(=O)N4CCCC(c5ccccc5)C4)c3)ccn2)[nH]c1C (racemic) [Example 188, 2′-(4,5-Dimethyl-1H-imidazol-2-yl)-5-[(3-phenylpiperidin-1-yl)carbonyl]-3,4′-bipyridine trifluoroacetate salt]
IC50 [1]: ≤ 500 nM
IC50 [2]: ≤ 500 nM

Cc1nc(-c2cc(C3CCCN(S(=O)(=O)c4ccccc4)C3)ccn2)[nH]c1C (racemic) [Example 215, 2-(4,5-Dimethyl-1H-imidazol-2-yl)-4-[1-(phenylsulfonyl)piperidin-3-yl]pyridine Trifluoroacetate Salt]
IC50 [1]: ≤ 500 nM
IC50 [2]: > 500 nM

Cc1[nH]c(-c2cc(-c3cncc(N4CCOCC4)c3)ccn2)nc1C(=O)N(C)C1CCOC1 (racemic) [Example 261, N,5-Dimethyl-2-(5-morpholin-4-yl-3,4′-bipyridin-2′-yl)-N-(tetrahydrofuran-3-yl)-1H-imidazole-4-carboxamide]
IC50 [1]: ≤ 500 nM
IC50 [2]: ≤ 500 nM

Clc1ccc(Cn2cc(-c3ccnc(-c4nc(C5CCNC5)c[nH]4)c3)cn2)cc1 (racemic) [Example 306, 4-[1-(4-Chlorobenzyl)-1H-pyrazol-4-yl]-2-(4-pyrrolidin-3-yl-1H-imidazol-2-yl)pyridine Trifluoroacetate Salt]
IC50 [1]: > 500 nM
IC50 [2]: > 500 nM

CS(=O)(=O)N1CCC(c2c[nH]c(-c3cc(-c4cnn(Cc5ccc(Cl)cc5)c4)ccn3)n2)C1 (single isomer, unassigned) [Example 304, 4-[1-(4-Chlorobenzyl)-1H-pyrazol-4-yl]-2-{4-[1-(methylsulfonyl)pyrrolidin-3-yl]-1H-imidazol-2-yl}pyridine trifluoroacetate salt]
IC50 [1]: ≤ 100 nM
IC50 [2]: ≤ 500 nM

Cn1cc(-c2ccnc(-c3ncc(-c4ccccc4)[nH]3)c2)cn1 [Example 8, 4-(1-Methyl-1H-pyrazol-4-yl)-2-(5-phenyl-1H-imidazol-2-yl)pyridine trifluoroacetate salt]
IC50 [1]: ≤ 500 nM
IC50 [2]: ≤ 500 nM

Cc1n[nH]c(C)c1-c1ccnc(-c2ncc(-c3ccccc3)[nH]2)c1 [Example 11, 4-(3,5-Dimethyl-1H-pyrazol-4-yl)-2-(5-phenyl-1H-imidazol-2-yl)pyridine trifluoroacetate salt]
IC50 [1]: > 500 nM
IC50 [2]: > 500 nM

CCCn1cc(-c2ccnc(-c3ncc(-c4ccccc4)[nH]3)c2)cn1 [Example 12, 2-(5-Phenyl-1H-imidazol-2-yl)-4-(1-propyl-1H-pyrazol-4-yl)pyridine trifluoroacetate salt]
IC50 [1]: ≤ 500 nM
IC50 [2]: ≤ 500 nM

Cn1nc(C(F)(F)F)cc1-c1ccnc(-c2ncc(-c3ccccc3)[nH]2)c1 [Example 14, 4-(1-Methyl-3-(trifluoromethyl)-1H-pyrazol-5-yl)-2-(5-phenyl-1H-imidazol-2-yl)pyridine trifluoroacetate salt]
IC50 [1]: > 500 nM
IC50 [2]: > 500 nM

Cn1ccnc1-c1ccnc(-c2ncc(-c3ccccc3)[nH]2)c1 [Example 16, 4-(1-Methyl-1H-imidazol-2-yl)-2-(5-phenyl-1H-imidazol-2-yl)pyridine trifluoroacetate salt]
IC50 [1]: > 500 nM
IC50 [2]: > 500 nM

N#Cc1cccc(Cn2cc(-c3ccnc(-c4ncc(-c5ccccc5)[nH]4)c3)cn2)c1 [Example 20, 3-((4-(2-(5-Phenyl-1H-imidazol-2-yl)pyridin-4-yl)-1H-pyrazol-1-yl)methyl)benzonitrile trifluoroacetate salt]
IC50 [1]: ≤ 500 nM
IC50 [2]: > 500 nM

Clc1cccc(Cn2cc(-c3ccnc(-c4ncc(-c5ccccc5)[nH]4)c3)cn2)c1 [Example 21, 4-(1-(3-Chlorobenzyl)-1H-pyrazol-4-yl)-2-(5-phenyl-1H-imidazol-2-yl)pyridine trifluoroacetate salt]
IC50 [1]: ≤ 500 nM
IC50 [2]: > 500 nM

c1ccc(-c2cnc(-c3cc(-c4cnn(C5CCNCC5)c4)ccn3)[nH]2)cc1 [Example 25, 2-(5-Phenyl-1H-imidazol-2-yl)-4-(1-(piperidin-4-yl)-1H-pyrazol-4-yl)pyridine trifluoroacetate salt]
IC50 [1]: > 500 nM
IC50 [2]: > 500 nM

c1ccc(-c2cnc(-c3cc(-c4cnn(CCN5CCOCC5)c4)ccn3)[nH]2)cc1 [Example 26, 4-(2-(4-(2-(5-Phenyl-1H-imidazol-2-yl)pyridin-4-yl)-1H-pyrazol-1-yl)ethyl)morpholine trifluoroacetate salt]
IC50 [1]: > 500 nM
IC50 [2]: > 500 nM

COC(=O)c1ccccc1Cn1cc(-c2ccnc(-c3ncc(-c4ccccc4)[nH]3)c2)cn1 [Example 30, Methyl 2-((4-(2-(5-phenyl-1H-imidazol-2-yl)pyridin-4-yl)-1H-pyrazol-1-yl)methyl)benzoate trifluoroacetate salt]
IC50 [1]: > 500 nM
IC50 [2]: > 500 nM

COC(=O)c1cccc(Cn2cc(-c3ccnc(-c4ncc(-c5ccccc5)[nH]4)c3)cn2)c1 [Example 31, Methyl 3-((4-(2-(5-phenyl-1H-imidazol-2-yl)pyridin-4-yl)-1H-pyrazol-1-yl)methyl)benzoate trifluoroacetate salt]
IC50 [1]: ≤ 500 nM
IC50 [2]: > 500 nM
